# According to ChEMBL document CHEMBL4346715, “Antibacterial activity study of 1,2,4-triazole derivatives” (Eur J Med Chem, 2019):
# Experiments:
# Listeria monocytogenes = test: Antibacterial activity against Listeria monocytogenes ATCC 35152 after 24 hrs by broth microdilution method; format: functional; settings: ATCC 35152, 24 h
# Staphylococcus aureus [1] = test: Antibacterial activity against Staphylococcus aureus ATCC 49444 after 24 hrs by broth microdilution method; format: functional; settings: ATCC 49444, 24 h
# Pseudomonas aeruginosa [2] = test: Antibacterial activity against Pseudomonas aeruginosa ATCC 27853 after 24 hrs by broth microdilution method; format: functional; settings: ATCC 27853, 24 h
# Salmonella typhimurium = test: Antibacterial activity against Salmonella typhimurium ATCC 14028 after 24 hrs by broth microdilution method; format: functional, Salmonella enterica subsp. enterica serovar Typhimurium; settings: Salmonella enterica, ATCC 14028, 24 h
# Escherichia coli [3] = test: Antibacterial activity against Escherichia coli after 24 hrs by broth microdilution method; format: functional
# Escherichia coli [4] = test: Antibacterial activity against Escherichia coli; format: functional
# Staphylococcus aureus [5] = test: Antibacterial activity against Staphylococcus aureus; format: functional
# Bacillus subtilis = test: Antibacterial activity against Bacillus subtilis; format: functional
# Candida albicans = test: Antifungal activity against Candida albicans; format: functional
# Aspergillus niger = test: Antifungal activity against Aspergillus niger; format: functional
# Pseudomonas aeruginosa [6] = test: Antibacterial activity against Pseudomonas aeruginosa; format: functional
# Escherichia coli [7] = test: Antibacterial activity against Escherichia coli incubated for 18 hrs post 30 mins pre-diffusion by disk diffusion method; format: functional
# Staphylococcus aureus [8] = test: Antibacterial activity against Staphylococcus aureus incubated for 18 hrs post 30 mins pre-diffusion by disk diffusion method; format: functional
# Streptococcus pneumoniae = test: Antibacterial activity against Streptococcus pneumoniae; format: functional
# Clostridium tetani = test: Antibacterial activity against Clostridium tetani; format: functional
compound,measurement,setting,value
Cc1nc(-c2ccccc2)sc1-c1nnc(S)n1/N=C/c1cccc([N+](=O)[O-])c1,MIC,Listeria monocytogenes,1.95 to 62.5 µg/mL
same,MIC,Staphylococcus aureus [1],1.95 to 62.5 µg/mL
same,MIC,Pseudomonas aeruginosa [2],1.95 to 62.5 µg/mL
same,MIC,Salmonella typhimurium,1.95 to 62.5 µg/mL
same,MIC,Escherichia coli [3],1.95 to 62.5 µg/mL
COc1ccc(/C=N/n2c(S)nnc2-c2ccncc2)cc1,MIC,Escherichia coli [4],10.2 to 162 µg/mL
same,MIC,Staphylococcus aureus [5],10.2 to 162 µg/mL
same,MIC,Bacillus subtilis,10.2 to 162 µg/mL
same,MIC,Candida albicans,10.2 to 162 µg/mL
same,MIC,Aspergillus niger,10.2 to 162 µg/mL
same,MIC,Pseudomonas aeruginosa [6],10.2 to 162 µg/mL
Cc1cc(C)cc(-c2nnc(Sc3cc(Cl)nc(Sc4ccccc4)n3)[nH]2)c1,MIC,Escherichia coli [7],1.6 to 250 µg/mL
same,MIC,Staphylococcus aureus [8],1.6 to 250 µg/mL
CSc1nc(Cl)cc(Sc2nnc(-c3cccc(C(F)(F)F)c3)[nH]2)n1,MIC,Escherichia coli [7],1.6 to 250 µg/mL
same,MIC,Staphylococcus aureus [8],1.6 to 250 µg/mL
Cc1nc(-c2ccccc2)sc1-c1nnc(S)n1/N=C/c1ccc(Br)cc1,MIC,Listeria monocytogenes,1.95 to 62.5 µg/mL
same,MIC,Staphylococcus aureus [1],1.95 to 62.5 µg/mL
same,MIC,Pseudomonas aeruginosa [2],1.95 to 62.5 µg/mL
same,MIC,Salmonella typhimurium,1.95 to 62.5 µg/mL
same,MIC,Escherichia coli [3],1.95 to 62.5 µg/mL
Cc1nc(-c2ccccc2)sc1-c1nnc(S)n1/N=C/c1cccc(Cl)c1,MIC,Listeria monocytogenes,1.95 to 62.5 µg/mL
same,MIC,Staphylococcus aureus [1],1.95 to 62.5 µg/mL
same,MIC,Pseudomonas aeruginosa [2],1.95 to 62.5 µg/mL
same,MIC,Salmonella typhimurium,1.95 to 62.5 µg/mL
same,MIC,Escherichia coli [3],1.95 to 62.5 µg/mL
CSc1nc(Cl)cc(Sc2nnc(-c3ccc(C(F)(F)F)cc3)[nH]2)n1,MIC,Escherichia coli [7],1.6 to 250 µg/mL
same,MIC,Staphylococcus aureus [8],1.6 to 250 µg/mL
CSc1nccc(Sc2nnc(-c3cc(C(F)(F)F)cc(C(F)(F)F)c3)[nH]2)n1,MIC,Escherichia coli [7],1.6 to 250 µg/mL
same,MIC,Staphylococcus aureus [8],1.6 to 250 µg/mL
CCC/C=N/n1c(S)nnc1-c1ccncc1,MIC,Escherichia coli [4],10.2 to 162 µg/mL
same,MIC,Staphylococcus aureus [5],10.2 to 162 µg/mL
same,MIC,Bacillus subtilis,10.2 to 162 µg/mL
same,MIC,Candida albicans,10.2 to 162 µg/mL
same,MIC,Aspergillus niger,10.2 to 162 µg/mL
same,MIC,Pseudomonas aeruginosa [6],10.2 to 162 µg/mL
COC1=CC(=O)C[C@@H](C)[C@]12Oc1c(Cl)c(OC)cc(OC)c1C2=O [GRISEOFULVIN],MIC,Escherichia coli [4],100 to 500 µg/mL
same,MIC,Staphylococcus aureus [5],100 to 500 µg/mL
same,MIC,Streptococcus pneumoniae,100 to 500 µg/mL
same,MIC,Bacillus subtilis,100 to 500 µg/mL
same,MIC,Clostridium tetani,100 to 500 µg/mL
COc1cc(/C=N/n2c(S)nnc2-c2ccncc2)cc(OC)c1OC,MIC,Escherichia coli [4],10.2 to 162 µg/mL
same,MIC,Staphylococcus aureus [5],10.2 to 162 µg/mL
same,MIC,Bacillus subtilis,10.2 to 162 µg/mL
same,MIC,Candida albicans,10.2 to 162 µg/mL
same,MIC,Aspergillus niger,10.2 to 162 µg/mL
same,MIC,Pseudomonas aeruginosa [6],10.2 to 162 µg/mL
FC(F)(F)c1cccc(-c2nnc(Sc3cc(Cl)nc(Sc4ccccc4)n3)[nH]2)c1,MIC,Escherichia coli [7],1.6 to 250 µg/mL
same,MIC,Staphylococcus aureus [8],1.6 to 250 µg/mL
CSc1nc(Cl)cc(Sc2nnc(-c3cc(F)cc(F)c3)[nH]2)n1,MIC,Escherichia coli [7],1.6 to 250 µg/mL
same,MIC,Staphylococcus aureus [8],1.6 to 250 µg/mL
